From patent US8598173B2, “1-[(6,7-substituted alkoxyquinoxalinyl)aminocarbonyl]-4-(hetero)arylpiperazine derivatives for treating tumors” (Korea Research Institute of Chemical Technology, priority 2004, dated 2013) come the findings set out here.

What all share (format): cell-based, human
Conditions in all cases: SRB method, 96 hours incubation

For one assay, the system named is MDA-MB-231 (breast). As to the kind of experiment: Cell growth inhibition assay (SRB), MDA-MB-231. As for the experimental part:
(§1) OVCAR-3, MCF-7, PC3, HepG2, A549, HT-29 and MKN-45 were grown in RPMI1640 medium (Invitrogen, Carlsbad, Calif.) supplemented with 10% fetal bovine serum (‘FBS’), 1 mM sodium pyruvate, 10 mM HEPES and 100 U/ml penicillin and […] streptomycin (‘P/S’). MDA-MB-231, HCT116, UMRC2, Caki-1, PANC-1 and HEK293 cells were maintained in Dulbecco's modified Eagle's medium (‘DMEM’, Invitrogen) supplemented with 10% FBS, P/S, 10 mM HEPES and 2 mM L-glutamine. HUVEC was maintained in M199 supplemented with basic fibroblast growth factor (‘bFGF’) […] and FBS 20%. All cells were incubated at 37° C. under humidified 5% CO2.
(§2) The growth inhibition of the substituted quinoxalin-piperazine compounds against a variety of human tumor cells was evaluated. The relative importance of particular substituent groups on the compounds was also studied. The substituted piperazine derivative compounds, prepared as described above, were tested, along with DMSO as a control.
(§3) The growth inhibition assay of various compounds against human tumor cell lines was performed using the Sulforhodamine B (‘SRB’) method (Skehan et al., J. National Cancer Institute, 1990, 82, 1107-1112). […] Triplicate wells were used for each treatment. The cells were incubated with the various compounds for 96 hours at 37° C. in a humidified 5% CO2 atmosphere. After 96-hour incubation, cells were fixed with 10% trichloroacetic acid (‘TCA’), incubated for 1 hour at 4° C., and washed 3 times with tap water. Subsequently cells were stained with 0.4% sulforhodamine B in 1% acetic acid for 30 minutes, washed 4 times with 1% acetic acid, and air-dried again. After 5 minutes agitation in 10 mM Tris solution, the absorbance of each well was measured at 530 nm using Benchmark Plus Microplate reader (Bio-Rad Laboratories, Hercules, Calif.).
(§4) To translate the OD530 values into the number of live cells in each well, the OD530 values were compared to those on standard OD530-versus-cell number curves generated for each cell line. The percent survival was calculated using the formula: % Survival=live cell number[test]/live cell number[control]×100
(§5) The IC50 values were calculated by non-linear regression analysis.

A further assay deals with UMRC2 (kidney). As to the kind of experiment: Cell growth inhibition assay (SRB), UMRC2. As for the experimental part:
as §1, §2, §3, §4, §5

The next assay deals with PANC-1 (pancreas). As to the kind of experiment: Cell growth inhibition assay (SRB), PANC-1. The procedure: as §1, §2, §3, §4, §5
Setting [1] is: MDA-MB-231, read-out: Inhibition of cell growth (IC50, μM) by quinoxaline-piperazine compounds against human cancer cell lines: MDA-MB-231.
Where [2] appears, read: UMRC2, read-out: Inhibition of cell growth (IC50, μM) by quinoxaline-piperazine compounds against human cancer cell lines: UMRC2.
Where [3] appears, read: PANC-1, read-out: Inhibition of cell growth (IC50, μM) by quinoxaline-piperazine compounds against human cancer cell lines: PANC-1.
Setting [4] is: Homo sapiens, MDA-MB-231, read-out: Inhibition of cell growth (IC50, μM) by quinoxaline-piperazine compounds against human cancer cell lines: MDA-MB-231.
[5] abbreviates: Homo sapiens, UMRC2, read-out: Inhibition of cell growth (IC50, μM) by quinoxaline-piperazine compounds against human cancer cell lines: UMRC2.
The mark [6] stands for this setting: Homo sapiens, PANC-1, read-out: Inhibition of cell growth (IC50, μM) by quinoxaline-piperazine compounds against human cancer cell lines: PANC-1.
[7] abbreviates: MDA-MB-231 (breast), read-out: IC50, MDA-MB-231.
Where [8] appears, read: UMRC2 (kidney), read-out: IC50, UMRC2.
Where [9] appears, read: PANC-1 (pancreas), read-out: IC50, PANC-1.
[10] abbreviates: Homo sapiens, MDA-MB-231 (breast), read-out: IC50, MDA-MB-231.
Setting [11] is: Homo sapiens, UMRC2 (kidney), read-out: IC50, UMRC2.
The mark [12] stands for this setting: Homo sapiens, PANC-1 (pancreas), read-out: IC50, PANC-1.

Like-named read-outs stand apart in the source and are kept apart here. Some results are limits rather than exact numbers.

For the compound `COc1nc2ccc(F)cc2nc1NC(=O)N1CCN(c2cccc(C(F)(F)F)c2)CC1` [Compound 11, 1-[(6-Fluoro-2-methoxyquinoxalin-3-yl)aminocarbonyl]-4-(3-trifluorotolyl)piperazine], the IC50 with MDA-MB-231 (breast) (setting [1]) came out at 0.25 µM; with UMRC2 (kidney) (setting [2]), 0.39 µM; in the assay with PANC-1 (pancreas) (setting [3]) it was 1.06 µM.

On to `COc1cccc(N2CCN(C(=O)Nc3nc4cc(Cl)ccc4nc3OC)CC2)c1` [Compound 24, 1-[(6-Chloro-2-methoxyquinoxalin-3-yl)aminocarbonyl]-4-(3-methoxyphenyl)piperazine], for which the IC50 in the assay on MDA-MB-231 (breast) (setting [4]) was determined as 0.41 µM; with UMRC2 (kidney) (setting [5]), 0.68 µM; with PANC-1 (pancreas) (setting [6]), 1.66 µM.

Take `COc1nc2ccc(Cl)cc2nc1NC(=O)N1CCN(c2cccc(C)c2)CC1` [Compound 29, 1-[(6-Chloro-2-methoxyquinoxalin-3-yl)aminocarbonyl]-4-(3-methylphenyl)piperazine]: the IC50 in the assay with MDA-MB-231 (breast) (setting [4]) worked out at 0.16 µM; with UMRC2 (kidney) (setting [5]), 0.3 µM; in the assay on PANC-1 (pancreas) (setting [6]), 0.95 µM.

With `COc1nc2ccc(Cl)cc2nc1NC(=O)N1CCN(c2cccc(C(F)(F)F)c2)CC1` [Compound 32, 1-[(6-Chloro-2-methoxyquinoxalin-3-yl)aminocarbonyl]-4-(3-trifluorotolyl)piperazine], the IC50 in the assay on MDA-MB-231 (breast) (setting [1]) was 1 µM; in the assay on UMRC2 (kidney) (setting [2]), 1 µM; in the assay on PANC-1 (pancreas) (setting [3]) it was more than 1 µM.

For the compound `COc1nc2ccc(Cl)cc2nc1NC(=O)N1CCN(c2cccc(Cl)c2)CC1` [Compound 36, 1-[(6-Chloro-2-methoxyquinoxalin-3-yl)aminocarbonyl]-4-(3-chlorophenyl)piperazine], the half-maximal inhibitory concentration (IC50) with MDA-MB-231 (breast) (setting [4]) worked out at 0.17 µM; in the assay on UMRC2 (kidney) (setting [5]), 0.31 µM; in the assay on PANC-1 (pancreas) (setting [6]), 0.93 µM.

For the compound `COc1nc2ccc(C)cc2nc1NC(=O)N1CCN(c2cccc(C)c2)CC1` [Compound 50, 1-[(2-Methoxy-6-methylquinoxalin-3-yl)aminocarbonyl]-4-(3-methylphenyl)piperazine], the values for the IC50 with MDA-MB-231 (breast) (setting [4]), in the assay on UMRC2 (kidney) (setting [5]) and with PANC-1 (pancreas) (setting [6]) were 0.22 µM, 0.4 µM and 1.04 µM, respectively.

Take `COc1nc2ccc(C)cc2nc1NC(=O)N1CCN(c2cccc(C(F)(F)F)c2)CC1` [Compound 53, 1-[(2-Methoxy-6-methylquinoxalin-3-yl)aminocarbonyl]-4-(3-trifluorotolyl)piperazine]: the IC50 in the assay on MDA-MB-231 (breast) (setting [1]), in the assay with UMRC2 (kidney) (setting [2]) and with PANC-1 (pancreas) (setting [3]) was more than 1 µM each time.

In the case of `COc1nc2ccc(C)cc2nc1NC(=O)N1CCN(c2cccc(Cl)c2)CC1` [Compound 57, 1-[(2-Methoxy-6-methylquinoxalin-3-yl)aminocarbonyl]-4-(3-chlorophenyl)piperazine], the IC50 in the assay on MDA-MB-231 (breast) (setting [4]) was 0.14 µM; in the assay on UMRC2 (kidney) (setting [5]) it was 0.24 µM; in the assay on PANC-1 (pancreas) (setting [6]) it was 0.64 µM.

As for `COc1cccc(N2CCN(C(=O)Nc3nc4cc(OC)ccc4nc3OC)CC2)c1` [Compound 66, 1-[(2,6-Dimethoxyquinoxalin-3-yl)aminocarbonyl]-4-(3-methoxyphenyl)piperazine], the half-maximal inhibitory concentration (IC50) in the assay with MDA-MB-231 (breast) (setting [4]), in the assay on UMRC2 (kidney) (setting [5]) and in the assay on PANC-1 (pancreas) (setting [6]) was more than 1 µM each time.

On to `COc1ccc2nc(OC)c(NC(=O)N3CCN(c4cccc(C)c4)CC3)nc2c1` [Compound 71, 1-[(2,6-Dimethoxyquinoxalin-3-yl)aminocarbonyl]-4-(3-methylphenyl)piperazine], for which the figures for the IC50 in the assay on MDA-MB-231 (breast) (setting [4]), in the assay with UMRC2 (kidney) (setting [5]) and with PANC-1 (pancreas) (setting [6]) were 0.4 µM, 0.63 µM and 1.43 µM, respectively.

For `COc1ccc2nc(OC)c(NC(=O)N3CCN(c4cccc(Cl)c4)CC3)nc2c1` [Compound 78, 1-[(2,6-Dimethoxyquinoxalin-3-yl)aminocarbonyl]-4-(3-chlorophenyl)piperazine], the IC50 in the assay on MDA-MB-231 (breast) (setting [4]), with UMRC2 (kidney) (setting [5]) and with PANC-1 (pancreas) (setting [6]) was more than 1 µM throughout.

Take `COc1cccc(N2CCN(C(=O)Nc3nc4ccc(F)cc4nc3OC)CC2)c1` [Compound 87, 1-[(6-Fluoro-3-methoxyquinoxalin-2-yl)aminocarbonyl]-4-(3-methoxyphenyl)piperazine]: the IC50 with MDA-MB-231 (breast) (setting [4]), with UMRC2 (kidney) (setting [5]) and in the assay on PANC-1 (pancreas) (setting [6]) was more than 1 µM throughout.

As to `COc1nc2cc(F)ccc2nc1NC(=O)N1CCN(c2cccc(C)c2)CC1` [Compound 92, 1-[(6-Fluoro-3-methoxyquinoxalin-2-yl)aminocarbonyl]-4-(3-methylphenyl)piperazine], the IC50 with MDA-MB-231 (breast) (setting [4]) was found to be 0.21 µM; with UMRC2 (kidney) (setting [5]), 0.37 µM; in the assay with PANC-1 (pancreas) (setting [6]) it was 0.95 µM.

`COc1nc2cc(F)ccc2nc1NC(=O)N1CCN(c2cccc(C(F)(F)F)c2)CC1` [Compound 95, 1-[(6-Fluoro-3-methoxyquinoxalin-2-yl)aminocarbonyl]-4-(3-trifluorotoly)piperazine]: the IC50 with MDA-MB-231 (breast) (setting [7]), in the assay on UMRC2 (kidney) (setting [8]) and with PANC-1 (pancreas) (setting [9]) was more than 1 µM in each case.

As for `COc1cccc(N2CCN(C(=O)Nc3nc4ccc(Cl)cc4nc3OC)CC2)c1` [Compound 108, 1-[(6-Chloro-3-methoxyquinoxalin-2-yl)aminocarbonyl]-4-(3-methoxyphenyl)piperazine], the IC50 in the assay with MDA-MB-231 (breast) (setting [10]), in the assay with UMRC2 (kidney) (setting [11]) and in the assay on PANC-1 (pancreas) (setting [12]) was more than 1 µM throughout.

Turning to `COc1nc2cc(Cl)ccc2nc1NC(=O)N1CCN(c2cccc(C)c2)CC1` [Compound 113, 1-[(6-Chloro-3-methoxyquinoxalin-2-yl)aminocarbonyl]-4-(3-methylphenyl)piperazine], the values for the concentration for half-maximal inhibition (IC50) in the assay with MDA-MB-231 (breast) (setting [10]), in the assay on UMRC2 (kidney) (setting [11]) and in the assay with PANC-1 (pancreas) (setting [12]) were 0.3 µM, 0.4 µM and 0.61 µM, respectively.

Turning to `COc1nc2cc(Cl)ccc2nc1NC(=O)N1CCN(c2cccc(C(F)(F)F)c2)CC1` [Compound 116, 1-[(6-Chloro-3-methoxyquinoxalin-2-yl)aminocarbonyl]-4-(3-trifluorotolyl)piperazine], the IC50 in the assay on MDA-MB-231 (breast) (setting [7]), in the assay on UMRC2 (kidney) (setting [8]) and in the assay with PANC-1 (pancreas) (setting [9]) was more than 1 µM throughout.

For the compound `COc1cccc(N2CCN(C(=O)Nc3nc4ccc(C)cc4nc3OC)CC2)c1` [Compound 129, 1-[(3-Methoxy-6-methylquinoxalin-2-yl)aminocarbonyl]-4-(3-methoxyphenyl)piperazine], the half-maximal inhibitory concentration (IC50) with MDA-MB-231 (breast) (setting [10]), in the assay on UMRC2 (kidney) (setting [11]) and with PANC-1 (pancreas) (setting [12]) was more than 1 µM each time.

For `COc1nc2cc(C)ccc2nc1NC(=O)N1CCN(c2cccc(C)c2)CC1` [Compound 134, 1-[(3-Methoxy-6-methylquinoxalin-2-yl)aminocarbonyl]-4-(3-methylphenyl)piperazine], the concentration for half-maximal inhibition (IC50) with MDA-MB-231 (breast) (setting [10]) and in the assay with UMRC2 (kidney) (setting [11]) was 0.26 µM in each case.

Regarding `COc1nc2cc(C)ccc2nc1NC(=O)N1CCN(c2cccc(Cl)c2)CC1` [Compound 141, 1-[(3-Methoxy-6-methylquinoxalin-2-yl)aminocarbonyl]-4-(3-chlorophenyl)piperazine], the IC50 in the assay with MDA-MB-231 (breast) (setting [10]) and with UMRC2 (kidney) (setting [11]) was 0.25 µM in each case.

In the case of `COc1cccc(N2CCN(C(=O)Nc3nc4ccc(OC)cc4nc3OC)CC2)c1` [Compound 150, 1-[(3,6-Dimethoxyquinoxalin-2-yl)aminocarbonyl]-4-(3-methoxyphenyl)piperazine], the IC50 in the assay on MDA-MB-231 (breast) (setting [10]) is not below 1 µM; in the assay with UMRC2 (kidney) (setting [11]), more than 1 µM; in the assay with PANC-1 (pancreas) (setting [12]), more than 1 µM.

With `COc1ccc2nc(NC(=O)N3CCN(c4cccc(C)c4)CC3)c(OC)nc2c1` [Compound 155, 1-[(3,6-Dimethoxyquinoxalin-2-yl)aminocarbonyl]-4-(3-methylphenyl)piperazine], the 50% inhibitory concentration (IC50) with MDA-MB-231 (breast) (setting [10]) amounted to 0.23 µM; in the assay with UMRC2 (kidney) (setting [11]) it was 0.39 µM; in the assay with PANC-1 (pancreas) (setting [12]) it was 0.96 µM.
